Experimental data: patent US10792289B2 (Horizon Orphan LLC, priority 2009, dated 2020)

Test system: S. aureus
Test: Phase 2 study: presumptive S. aureus density in sputum
Assay type: in vivo, human
Description: The following dosage regimens (as nebulizer loaded doses) were evaluated: 120 mg QD (daily); 240 mg QD (daily); and 240 mg BID (twice daily).
Patients were assessed on Day 1, 7, 14, and 28, and then up to 28 days after completion of study drug, namely, Days 42 and 56. The end of the study was defined as the last visit of the last patient.

[1] = EE population, Combined 240 mg QD and BID
[2] = EE population, Combined Levofloxacin
[3] = Table 21 (EE population), 120 mg QD
[4] = Table 21 (EE population), 240 mg BID
[5] = Table 21 (EE population), 240 mg QD
[6] = Table 21 (EE population), Combined 240 mg QD and BID
[7] = Table 21 (EE population), Combined Levofloxacin

Structure (SMILES): C[C@H]1COc2c(N3CCN(C)CC3)c(F)cc3c(=O)c(C(=O)O)cn1c23 [Levofloxacin, levofloxacin]
- presumptive S. aureus density, Change from Baseline to Day 7, Mean (EE population, 120 mg QD): −1.19 log10 CFU/g sputum
- presumptive S. aureus density, Day 1, Mean (EE population, 120 mg QD): 5.72 log10 CFU/g sputum
- presumptive S. aureus density, Day 7, Mean (EE population, 120 mg QD): 4.53 log10 CFU/g sputum
- presumptive S. aureus density, Day 14, Mean (EE population, 120 mg QD): 5.30 log10 CFU/g sputum
- presumptive S. aureus density, Day 28, Mean (EE population, 120 mg QD): 5.31 log10 CFU/g sputum
- presumptive S. aureus density, Change from Baseline to Day 28, Mean (EE population, 120 mg QD, Day 14): −0.42 log10 CFU/g sputum
- presumptive S. aureus density, Change from Baseline to Day 28, Mean (EE population, 120 mg QD, Day 28): −0.41 log10 CFU/g sputum
- presumptive S. aureus density, Change from Baseline to Day 7, Mean (EE population, 240 mg BID): −0.72 log10 CFU/g sputum
- presumptive S. aureus density, Day 1, Mean (EE population, 240 mg BID): 5.68 log10 CFU/g sputum
- presumptive S. aureus density, Day 7, Mean (EE population, 240 mg BID): 4.96 log10 CFU/g sputum
- presumptive S. aureus density, Day 14, Mean (EE population, 240 mg BID): 4.70 log10 CFU/g sputum
- presumptive S. aureus density, Day 28, Mean (EE population, 240 mg BID): 5.42 log10 CFU/g sputum
- presumptive S. aureus density, Change from Baseline to Day 28, Mean (EE population, 240 mg BID, Day 14): −0.98 log10 CFU/g sputum
- presumptive S. aureus density, Change from Baseline to Day 28, Mean (EE population, 240 mg BID, Day 28): −0.38 log10 CFU/g sputum
- presumptive S. aureus density, Change from Baseline to Day 7, Mean (EE population, 240 mg QD): −0.30 log10 CFU/g sputum
- presumptive S. aureus density, Day 1, Mean (EE population, 240 mg QD): 5.64 log10 CFU/g sputum
- presumptive S. aureus density, Day 7, Mean (EE population, 240 mg QD): 5.34 log10 CFU/g sputum
- presumptive S. aureus density, Day 14, Mean (EE population, 240 mg QD): 5.14 log10 CFU/g sputum
- presumptive S. aureus density, Day 28, Mean (EE population, 240 mg QD): 4.56 log10 CFU/g sputum
- presumptive S. aureus density, Change from Baseline to Day 28, Mean (EE population, 240 mg QD, Day 14): −0.50 log10 CFU/g sputum
- presumptive S. aureus density, Change from Baseline to Day 28, Mean (EE population, 240 mg QD, Day 28): −1.08 log10 CFU/g sputum
- presumptive S. aureus density, Change from Baseline to Day 7, Mean [1]: −0.47 log10 CFU/g sputum
- presumptive S. aureus density, Day 1, Mean [1]: 5.65 log10 CFU/g sputum
- presumptive S. aureus density, Day 7, Mean [1]: 5.18 log10 CFU/g sputum
- presumptive S. aureus density, Day 14, Mean [1]: 4.96 log10 CFU/g sputum
- presumptive S. aureus density, Day 28, Mean [1]: 4.89 log10 CFU/g sputum
- presumptive S. aureus density, Change from Baseline to Day 28, Mean (EE population, Combined 240 mg QD and BID, Day 14): −0.69 log10 CFU/g sputum
- presumptive S. aureus density, Change from Baseline to Day 28, Mean (EE population, Combined 240 mg QD and BID, Day 28): −0.81 log10 CFU/g sputum
- presumptive S. aureus density, Change from Baseline to Day 7, Mean [2]: −0.71 log10 CFU/g sputum
- presumptive S. aureus density, Day 1, Mean [2]: 5.68 log10 CFU/g sputum
- presumptive S. aureus density, Day 7, Mean [2]: 4.97 log10 CFU/g sputum
- presumptive S. aureus density, Day 14, Mean [2]: 5.08 log10 CFU/g sputum
- presumptive S. aureus density, Day 28, Mean [2]: 5.04 log10 CFU/g sputum
- presumptive S. aureus density, Change from Baseline to Day 28, Mean (EE population, Combined Levofloxacin, Day 14): −0.60 log10 CFU/g sputum
- presumptive S. aureus density, Change from Baseline to Day 28, Mean (EE population, Combined Levofloxacin, Day 28): −0.67 log10 CFU/g sputum
- presumptive S. aureus density, Change from Baseline to Day 7, Mean [3]: −1.14 log10 CFU/g sputum
- presumptive S. aureus density, Day 1, Mean [3]: 5.89 log10 CFU/g sputum
- presumptive S. aureus density, Day 7, Mean [3]: 4.75 log10 CFU/g sputum
- presumptive S. aureus density, Day 14, Mean [3]: 5.48 log10 CFU/g sputum
- presumptive S. aureus density, Day 28, Mean [3]: 5.49 log10 CFU/g sputum
- presumptive S. aureus density, Change from Baseline to Day 28, Mean (Table 21 (EE population), 120 mg QD, Day 14): −0.41 log10 CFU/g sputum
- presumptive S. aureus density, Change from Baseline to Day 28, Mean (Table 21 (EE population), 120 mg QD, Day 28): −0.41 log10 CFU/g sputum
- presumptive S. aureus density, Change from Baseline to Day 7, Mean [4]: −0.66 log10 CFU/g sputum
- presumptive S. aureus density, Day 1, Mean [4]: 5.51 log10 CFU/g sputum
- presumptive S. aureus density, Day 7, Mean [4]: 4.65 log10 CFU/g sputum
- presumptive S. aureus density, Day 14, Mean [4]: 4.32 log10 CFU/g sputum
- presumptive S. aureus density, Day 28, Mean [4]: 4.95 log10 CFU/g sputum
- presumptive S. aureus density, Change from Baseline to Day 28, Mean (Table 21 (EE population), 240 mg BID, Day 14): −0.99 log10 CFU/g sputum
- presumptive S. aureus density, Change from Baseline to Day 28, Mean (Table 21 (EE population), 240 mg BID, Day 28): −0.44 log10 CFU/g sputum
- presumptive S. aureus density, Change from Baseline to Day 7, Mean [5]: −0.40 log10 CFU/g sputum
- presumptive S. aureus density, Day 1, Mean [5]: 5.63 log10 CFU/g sputum
- presumptive S. aureus density, Day 7, Mean [5]: 5.23 log10 CFU/g sputum
- presumptive S. aureus density, Day 14, Mean [5]: 4.97 log10 CFU/g sputum
- presumptive S. aureus density, Day 28, Mean [5]: 4.48 log10 CFU/g sputum
- presumptive S. aureus density, Change from Baseline to Day 28, Mean (Table 21 (EE population), 240 mg QD, Day 14): −0.66 log10 CFU/g sputum
- presumptive S. aureus density, Change from Baseline to Day 28, Mean (Table 21 (EE population), 240 mg QD, Day 28): −1.15 log10 CFU/g sputum
- presumptive S. aureus density, Change from Baseline to Day 7, Mean [6]: −0.51 log10 CFU/g sputum
- presumptive S. aureus density, Day 1, Mean [6]: 5.58 log10 CFU/g sputum
- presumptive S. aureus density, Day 7, Mean [6]: 4.99 log10 CFU/g sputum
- presumptive S. aureus density, Day 14, Mean [6]: 4.70 log10 CFU/g sputum
- presumptive S. aureus density, Day 28, Mean [6]: 4.66 log10 CFU/g sputum
- presumptive S. aureus density, Change from Baseline to Day 28, Mean (Table 21 (EE population), Combined 240 mg QD and BID, Day 14): −0.80 log10 CFU/g sputum
- presumptive S. aureus density, Change from Baseline to Day 28, Mean (Table 21 (EE population), Combined 240 mg QD and BID, Day 28): −0.87 log10 CFU/g sputum
- presumptive S. aureus density, Change from Baseline to Day 7, Mean [7]: −0.71 log10 CFU/g sputum
- presumptive S. aureus density, Day 1, Mean [7]: 5.68 log10 CFU/g sputum
- presumptive S. aureus density, Day 7, Mean [7]: 4.91 log10 CFU/g sputum
- presumptive S. aureus density, Day 14, Mean [7]: 4.95 log10 CFU/g sputum
- presumptive S. aureus density, Day 28, Mean [7]: 4.93 log10 CFU/g sputum
- presumptive S. aureus density, Change from Baseline to Day 28, Mean (Table 21 (EE population), Combined Levofloxacin, Day 14): −0.68 log10 CFU/g sputum
- presumptive S. aureus density, Change from Baseline to Day 28, Mean (Table 21 (EE population), Combined Levofloxacin, Day 28): −0.72 log10 CFU/g sputum
